Structures can show the parent of a compound that is named as a salt. Where two headings read alike, the source gives them in different places. d = 2'-deoxy (DNA); r = 2'-OH (RNA)
Columns and labels:
Pgp, BCRP, MRP2 = settings: cited from earlier work
P-gp, BCRP, and MRP2 [1] = test: mock screening of model drugs: ex vivo perfusion through porcine small intestine tissue after siRNA knockdown; settings: transporter(s) found by siRNA knockdown perfusion screen
Text: (§5) Pig tissue was freshly sourced from local slaughter houses (i.e., Leman & Sons, Hilltown Pork, and Blood Farm). Small intestinal tissue was isolated from intact gastrointestinal tract immediately after euthanasia, and dissected longitudinally. A series of washes with PBS supplemented with 5% Antibiotic-Antimycotic solution (Thermo Fisher Scientific) was applied to the tissue until clean under sterile conditions. Then, the tissue was mounted on a device filled with PBS (5% Antibiotic-Antimycotic) solution and cultured at 37° C. incubation with 5% CO2 supplement.
(§6) siRNA duplex solution was diluted into PBS solution to a final concentration of 1 μM. […] Tissue was cultured for 24 hours before the perfusion assay.
(§7) The device consists of a bottom reservoir plate and an upper load plate. Both plates were made by laser cutting (Universal Laser Systems VLS6.60) a standard 48-well plate outline and well pattern (Corning 48 well plate, transparent) as well as magnet holes onto an acrylic sheet (McMaster-Carr 1/4″ thickness). Neodymium magnets (K&J Magnetics Cylinder, 3/16″× 3/16″, N52, NI) were press fitted into the magnet holes of both plates. Seal film (Thermo) was applied to seal the bottoms of the wells of the reservoir plate, and PBS solution was loaded into each well. Then, tissue was placed on top of the reservoir plate and the upper load plate was laid on top of the tissue. The magnets were oriented to align and attract the two plates together, ensuring a strong seal between the wells.
(§8) For ex vivo perfusion study, the detection of each drug is based on either fluorescent or absorbance measurements according to the literature. A 1 mg/mL drug stock was prepared for each drug in PBS (pH 7.4). For water-insoluble drugs, a final concentration of DMSO in PBS was used to solubilize drugs.

P-gp, BCRP, or MRP2 = test: in vivo pharmacokinetic study with oral transport inhibitor pre-treatment; settings: oral gavage, serum, 60 minutes; verapamil for P-gp, imatinib for BCRP, or probenecid for MRP2; p<0.05
P-gp [2] = test: siRNA dose versus transporter expression (western-blot); format: cell-based, porcine; settings: co-delivery with varying concentrations, 0 to 25 μM
Experimental: (§1) FIGS. 5A-5B show the level of reduction in P-gp and BCRP drug transporter expression depends on the dose of siRNA (0 to 25 μM) administered to the intestinal tissue explant.
(§2) Tissue was dissected and snap frozen in liquid nitrogen. Every 1 mg of tissue sample was homogenized in 100 μL of RIPA buffer supplied with protease inhibitor (Roche) by Berkin 24-cycle homogenizer. After centrifugation, the protein concentration from the supernatant was determined by BCA assay (Pierce) according to manufactory protocol. A total of 100 μg of protein was loaded on each lane for western-blotting. Blots were imaged with Bio-rad universal Hood Ii Molecular Imager (1312M) with Chemiluminescence method. Contrast setting was set for auto-contrast for all images.
(§3) Next perfusion of drugs that are known to be substrates for multiple transporters was studied. […] To be able to delineate such effects, it was aimed to down regulate multiple transporters simultaneously. Two siRNAs targeting P-gp and BCRP were co-delivered with varying concentrations of each siRNA and noted that expression levels could be fine-tuned in a dose-dependent, linear fashion (Pearson r=0.79 and 0.96, FIG. 5C). Next, how the simultaneous and gradual down regulation of transporter expression impacts drug perfusion was studied. […]

[3] = target: T1, P-gp, BCRP, MRP2, PEPT1, and MCT1 (Sus scrofa, UniProt Q8MIB3); test: ex vivo perfusion of known substrates and non-substrates after knockdown of a single transporter; format: in vitro ADME, porcine; settings: other drugs p<0.01
T1 construct: Small intestinal tissue was isolated from intact gastrointestinal tract immediately after euthanasia; from tissue; host or cells: porcine small intestine explant, single transporter knocked down by siRNA
T1 sequence (Q8MIB3 1-656): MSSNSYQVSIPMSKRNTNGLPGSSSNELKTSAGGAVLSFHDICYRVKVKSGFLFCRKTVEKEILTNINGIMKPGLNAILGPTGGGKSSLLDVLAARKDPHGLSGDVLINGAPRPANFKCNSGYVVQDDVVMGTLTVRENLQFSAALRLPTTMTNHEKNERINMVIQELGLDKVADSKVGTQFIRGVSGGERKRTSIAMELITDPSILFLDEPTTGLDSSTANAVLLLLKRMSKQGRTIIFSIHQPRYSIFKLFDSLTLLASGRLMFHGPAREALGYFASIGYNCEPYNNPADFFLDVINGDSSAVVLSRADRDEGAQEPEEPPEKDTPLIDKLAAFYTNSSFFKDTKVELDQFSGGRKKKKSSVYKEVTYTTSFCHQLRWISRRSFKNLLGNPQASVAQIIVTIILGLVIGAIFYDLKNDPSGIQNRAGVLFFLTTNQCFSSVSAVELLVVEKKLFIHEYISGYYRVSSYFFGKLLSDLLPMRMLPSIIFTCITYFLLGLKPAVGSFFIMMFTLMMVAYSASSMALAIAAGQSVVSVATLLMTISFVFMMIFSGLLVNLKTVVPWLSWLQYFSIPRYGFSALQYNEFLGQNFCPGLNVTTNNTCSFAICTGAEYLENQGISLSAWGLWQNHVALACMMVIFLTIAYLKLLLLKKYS
Experimental: If a molecule is transported by a specific transporter, its diffusion across the tissue should be impacted by selectively down regulating that transporter. To validate that the platform accurately captures this behavior, a total of 23 known transporter-drug relationships was tested.

BCRP [4] = test: siRNA dose versus transporter expression (western-blot); format: cell-based, porcine; settings: co-delivery with varying concentrations, 0 to 25 μM
Experimental: as §1, §2, §3

BCRP [5] = target: T2, BCRP (Sus scrofa, UniProt Q8MIB3); test: ex vivo perfusion versus gradually reduced BCRP expression; format: in vitro ADME, porcine
T2 construct: Small intestinal tissue was isolated from intact gastrointestinal tract immediately after euthanasia; from tissue; host or cells: porcine small intestine explant, BCRP level lowered by graded siRNA doses
T2 sequence (Q8MIB3 1-656): T1 sequence (Q8MIB3 1-656)
Text: (§4) Next perfusion of drugs that are known to be substrates for multiple transporters was studied. […] To be able to delineate such effects, it was aimed to down regulate multiple transporters simultaneously. Two siRNAs targeting P-gp and BCRP were co-delivered with varying concentrations of each siRNA and noted that expression levels could be fine-tuned in a dose-dependent, linear fashion (Pearson r=0.79 and 0.96, FIG. 5C). Next, how the simultaneous and gradual down regulation of transporter expression impacts drug perfusion was studied. Perfusion of BCRP-specific substrates increased linearly with reduced BCRP-expression (dauricine R=0.7, hymecromone sulfate R=0.81) but were not affected by altering P-gp expression (p>0.28 one-tailed Z test at maximum siPgp concentration; FIG. 5C).

P-gp [6] = target: T3, P-gp (Sus scrofa, UniProt K7GMM7); test: ex vivo perfusion versus altered P-gp expression; format: in vitro ADME, porcine
T3 construct: Small intestinal tissue was isolated from intact gastrointestinal tract immediately after euthanasia; from tissue; host or cells: porcine small intestine explant, P-gp level lowered by graded siRNA doses
T3 sequence (K7GMM7 1-1248): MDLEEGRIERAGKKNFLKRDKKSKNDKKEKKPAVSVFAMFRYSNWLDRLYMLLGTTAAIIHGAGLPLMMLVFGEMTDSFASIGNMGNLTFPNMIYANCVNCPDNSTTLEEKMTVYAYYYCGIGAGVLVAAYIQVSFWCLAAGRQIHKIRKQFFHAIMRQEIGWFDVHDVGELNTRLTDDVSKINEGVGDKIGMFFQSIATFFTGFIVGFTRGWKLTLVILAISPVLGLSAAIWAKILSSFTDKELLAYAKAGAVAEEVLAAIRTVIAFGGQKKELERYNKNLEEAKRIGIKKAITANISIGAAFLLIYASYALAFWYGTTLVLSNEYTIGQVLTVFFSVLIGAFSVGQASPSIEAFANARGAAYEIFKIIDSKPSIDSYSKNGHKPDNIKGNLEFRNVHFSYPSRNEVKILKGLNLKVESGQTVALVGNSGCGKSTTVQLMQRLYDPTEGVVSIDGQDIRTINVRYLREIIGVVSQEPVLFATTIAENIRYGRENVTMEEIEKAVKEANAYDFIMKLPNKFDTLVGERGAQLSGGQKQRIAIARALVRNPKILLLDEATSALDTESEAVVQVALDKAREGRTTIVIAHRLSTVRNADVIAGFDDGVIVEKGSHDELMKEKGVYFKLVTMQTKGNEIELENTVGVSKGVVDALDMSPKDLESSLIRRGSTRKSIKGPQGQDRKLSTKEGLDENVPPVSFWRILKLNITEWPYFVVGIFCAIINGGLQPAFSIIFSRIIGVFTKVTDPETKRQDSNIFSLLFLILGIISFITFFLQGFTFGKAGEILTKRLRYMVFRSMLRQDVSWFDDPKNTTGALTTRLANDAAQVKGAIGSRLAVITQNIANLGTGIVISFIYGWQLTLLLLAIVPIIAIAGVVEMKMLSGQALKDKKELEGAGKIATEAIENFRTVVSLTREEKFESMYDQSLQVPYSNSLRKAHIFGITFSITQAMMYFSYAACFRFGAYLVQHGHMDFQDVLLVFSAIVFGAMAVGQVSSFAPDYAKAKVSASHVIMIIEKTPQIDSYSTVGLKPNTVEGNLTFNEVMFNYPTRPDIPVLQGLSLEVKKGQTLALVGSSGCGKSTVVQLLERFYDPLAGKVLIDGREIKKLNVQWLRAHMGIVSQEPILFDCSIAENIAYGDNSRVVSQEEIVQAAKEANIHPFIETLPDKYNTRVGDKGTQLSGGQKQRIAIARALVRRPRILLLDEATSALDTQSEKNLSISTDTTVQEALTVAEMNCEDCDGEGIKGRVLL
Text: as §4

BCRP and MRP2 = test: ex vivo perfusion with doxycycline co-treatment
Experimental: Four candidate drugs that are known substrates of BCRP and MRP2 were manually selected to study whether they could potentially interact with doxycycline.
As a first-line test (FIG. 10), ex vivo perfusion experiments were conducted to test for changes in absorption when co-administering the candidates with doxycycline.

cytochrome P450 3A4 = cytochrome P450 3A4 (Homo sapiens, UniProt P08684); settings: cited from earlier work
Sequence of cytochrome P450 3A4 (P08684 whole entry): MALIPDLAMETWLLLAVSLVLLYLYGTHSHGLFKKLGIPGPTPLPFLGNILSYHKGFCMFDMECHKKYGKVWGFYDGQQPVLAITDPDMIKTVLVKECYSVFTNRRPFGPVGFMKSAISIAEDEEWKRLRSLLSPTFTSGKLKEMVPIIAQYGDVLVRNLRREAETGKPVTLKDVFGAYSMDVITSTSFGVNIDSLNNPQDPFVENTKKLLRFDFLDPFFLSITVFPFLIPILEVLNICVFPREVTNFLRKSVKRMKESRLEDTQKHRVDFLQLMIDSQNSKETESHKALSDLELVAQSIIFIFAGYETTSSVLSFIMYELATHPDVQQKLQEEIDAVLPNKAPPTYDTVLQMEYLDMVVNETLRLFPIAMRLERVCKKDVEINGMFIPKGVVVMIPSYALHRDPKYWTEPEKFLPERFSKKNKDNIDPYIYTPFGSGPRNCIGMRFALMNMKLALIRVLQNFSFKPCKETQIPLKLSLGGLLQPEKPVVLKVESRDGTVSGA

P-gp, BCRP, and MRP2 [7] = test system: P-gp, BCRP, and MRP2
Text: as §5, §6, §7, §8

[8] = transporter(s) reported in previous literature for the drug

CCOc1nc2cccc(C(=O)OC(C)OC(=O)OC3CCCCC3)c2n1Cc1ccc(-c2ccccc2-c2nnn[nH]2)cc1 (stereo not shown) [Candesartan cilexetil]
Literature Target (Pgp, BCRP, MRP2; [8]): Pgp | Platform Target (P-gp, BCRP, and MRP2 [1]): no target

C[C@H]1c2cccc(O)c2C(=O)C2=C(O)[C@]3(O)C(=O)C(C(N)=O)=C(O)[C@@H](N(C)C)[C@@H]3[C@@H](O)[C@@H]21 [Doxycycline]
known substrate of transporters (Pgp, BCRP, MRP2): P-gp and OAT1 | Literature Target (Pgp, BCRP, MRP2; [8]): no target | relative AUC (drug absorption) with versus without transport inhibitor (P-gp, BCRP, or MRP2): novel BCRP and MRP2 substrate | Platform Target (P-gp, BCRP, and MRP2 [1]): BCRP & MRP2

CC(C)(C)NCC(O)c1cc(O)cc(O)c1 (stereo not shown) [Terbutaline]
Literature Target (Pgp, BCRP, MRP2; [8]): no target | Platform Target (P-gp, BCRP, and MRP2 [1]): no target

siRNA targeting P-gp: siRNA duplex, sense SEQ ID NO: 91, antisense SEQ ID NO: 92 (sense AUGACAGUGUACGCCUAUUAUTT; antisense AUAAUAGGCGUACACUGUCAUTT; sugars from the 5' end r21 d2, backbone not given here)
Pearson r, expression level versus siRNA dose (P-gp [2]): 0.79

NCCC(O)(P(=O)(O)O)P(=O)(O)O [Pamidronate disodium salt hydrate]
Literature Target (Pgp, BCRP, MRP2; [8]): no target | Platform Target (P-gp, BCRP, and MRP2 [1]): Pgp

CC(C)c1nc(N(C)S(C)(=O)=O)nc(-c2ccc(F)cc2)c1/C=C/[C@@H](O)C[C@@H](O)CC(=O)O [Rosuvastatin]
p, two-tailed T test, of perfusion increase after knockdown [3]: 2%

siRNA targeting BCRP: siRNA duplex, sense SEQ ID NO: 95, antisense SEQ ID NO: 96 (sense ACUUCUUCCUGGACGUCAUUATT; antisense UAAUGACGUCCAGGAAGAAGUTT; chemistry not given here)
Pearson r, expression level versus siRNA dose (BCRP [4]): 0.96

N[C@@H](Cc1ccccc1)C(=O)O [L-phenylalanine]
Literature Target (Pgp, BCRP, MRP2; [8]): no target | Platform Target (P-gp, BCRP, and MRP2 [1]): no target

COc1cc2c(cc1OC)[C@@H](Cc1ccc(Oc3cc(C[C@@H]4c5cc(OC)c(OC)cc5CCN4C)ccc3O)cc1)N(C)CC2 [dauricine]
R, perfusion increase versus reduced BCRP-expression (BCRP [5]; pig): 0.7 | perfusion on altering P-gp expression (P-gp [6]): not affected

CC[C@@H](C(N)=O)N1CCCC1=O [levetiracetam]
perfusion / absorption upon co-treatment with doxycycline (BCRP and MRP2): increased absorption | metabolism through cytochrome P450 3A4 (cytochrome P450 3A4): not cytochrome substrates | known substrate of transporters (Pgp, BCRP, MRP2): BCRP and MRP2

C=CC[C@@H]1/C=C(\C)C[C@H](C)C[C@H](OC)[C@H]2O[C@@](O)(C(=O)C(=O)N3CCCC[C@H]3C(=O)O[C@H](/C(C)=C/[C@@H]3CC[C@@H](O)[C@H](OC)C3)[C@H](C)[C@@H](O)CC1=O)[C@H](C)C[C@@H]2OC [tacrolimus]
perfusion / absorption upon co-treatment with doxycycline (BCRP and MRP2; ex vivo, LC-MS/MS, p<0.05): increased absorption | metabolism through cytochrome P450 3A4 (cytochrome P450 3A4): metabolized through cytochrome P450 3A4 | known substrate of transporters (Pgp, BCRP, MRP2): BCRP and MRP2

CNC(=C[N+](=O)[O-])NCCSCc1ccc(CN(C)C)o1 [Ranitidine]
Literature Target (Pgp, BCRP, MRP2; [8]): Pgp & BCRP | Platform Target (P-gp, BCRP, and MRP2 [1]): Pgp & BCRP & MRP2

CN1C(C(=O)Nc2ccccn2)=C(O)c2ccccc2S1(=O)=O [Piroxicam]
Literature Target (Pgp, BCRP, MRP2; [8]): no target | Platform Target (P-gp, BCRP, and MRP2 [1]): no target

hymecromone sulfate
R, perfusion increase versus reduced BCRP-expression (BCRP [5]; BCRP-specific substrates, linear relation, FIG. 5C): 0.81 | perfusion on altering P-gp expression (P-gp [6]; BCRP-specific substrates, p>0.28 one-tailed Z test at maximum siPgp concentration): not affected

CN(C)C(=O)C(CCN1CCC(O)(c2ccc(Cl)cc2)CC1)(c1ccccc1)c1ccccc1 [Loperamide]
Platform Target (P-gp, BCRP, and MRP2 [7]): no target | Literature Target (Pgp, BCRP, MRP2): no target

NC(=O)N1c2ccccc2C=Cc2ccccc21 [Carbamazepine]
Literature Target (Pgp, BCRP, MRP2; [8]): Pgp | relative AUC (drug absorption) with versus without transport inhibitor (P-gp, BCRP, or MRP2): did not show the expected effect | Platform Target (P-gp, BCRP, and MRP2 [1]): Pgp & BCRP

C[C@H]1O[C@@H](O[C@H]2[C@@H](O)C[C@H](O[C@H]3[C@@H](O)C[C@H](O[C@H]4CC[C@@]5(C)[C@H](CC[C@@H]6[C@@H]5C[C@@H](O)[C@]5(C)[C@@H](C7=CC(=O)OC7)CC[C@]65O)C4)O[C@@H]3C)O[C@@H]2C)C[C@H](O)[C@@H]1O [digoxin]
perfusion / absorption upon co-treatment with doxycycline (BCRP and MRP2): increased absorption | metabolism through cytochrome P450 3A4 (cytochrome P450 3A4): not cytochrome substrates | known substrate of transporters (Pgp, BCRP, MRP2): BCRP and MRP2

Ergotamine D-tartrate
Literature Target (Pgp, BCRP, MRP2; [8]): Pgp | Platform Target (P-gp, BCRP, and MRP2 [1]): Pgp & BCRP & MRP2

CC(=O)CC(c1ccccc1)c1c(O)c2ccccc2oc1=O (stereo not shown) [Warfarin]
metabolism through cytochrome P450 3A4 (cytochrome P450 3A4): metabolized through cytochrome P450 3A4 | known substrate of transporters (Pgp, BCRP, MRP2): BCRP and MRP2 | Literature Target (Pgp, BCRP, MRP2; [8]): Pgp & BCRP | Platform Target (P-gp, BCRP, and MRP2 [1]): Pgp & BCRP

CC(C)(C)NCC(O)COc1cccc2c1CC(O)C(O)C2 (stereo not shown) [Nadolol]
Literature Target (Pgp, BCRP, MRP2; [8]): no target | Platform Target (P-gp, BCRP, and MRP2 [1]): BCRP

CN(C)[C@@H]1C(O)=C(C(N)=O)C(=O)[C@@]2(O)C(O)=C3C(=O)c4c(O)ccc(Cl)c4[C@@](C)(O)[C@H]3C[C@@H]12 [Chlorotetracycline]
Platform Target (P-gp, BCRP, and MRP2 [7]): no target | Literature Target (Pgp, BCRP, MRP2): no target

O=c1ccc2ccccc2o1 [Coumarin]
Literature Target (Pgp, BCRP, MRP2; [8]): Pgp | Platform Target (P-gp, BCRP, and MRP2 [1]): Pgp
